The results in this text go back to ChEMBL document CHEMBL3046831, “Novel PCU cage diol peptides as potential targets against wild-type CSA HIV-1 protease: synthesis, biological screening and molecular modelling studies” (Med Chem Res, 2013).

Test [1] has as its target T1, Protease (Human immunodeficiency virus 1, UniProt Q9YQ12). Kind of test: Inhibition of wild type C-South African Human immunodeficiency virus 1 protease using chromogenic peptide H-1048 as substrate by UV spectrophotometric analysis. Set-up: species or system C-SA.
Test [2] concerns the target T1, Protease. Kind of test: Inhibition of wild type C-South African Human immunodeficiency virus 1 protease. Details: species or system C-SA.
Test [3] has as its target T1, Protease. Kind of test: Inhibition of Human immunodeficiency virus 1 protease.

T1 sequence (Q9YQ12 whole entry): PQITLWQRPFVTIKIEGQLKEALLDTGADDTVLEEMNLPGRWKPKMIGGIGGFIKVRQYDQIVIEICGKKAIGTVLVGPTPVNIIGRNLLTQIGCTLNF

In test [1], `O=C(CC1(O)C2C3CC4C5C3C1C5C(O)(CC(=O)N[C@@H](Cc1c[nH]cn1)C(=O)O)C42)N[C@@H](Cc1c[nH]cn1)C(=O)O` (some centres not stated) returned an IC50 of more than 60 µM. On the same count and under the same terms, then `O=C(O)[C@@H]1CCCN1C(=O)CC1(O)C2C3CC4C5C3C1C5C(O)(CC(=O)N1CCC[C@H]1C(=O)O)C42` (some centres not stated), with more than 60 µM; and `NC(=O)[C@@H]1CCCN1C(=O)CC1(O)C2C3CC4C5C3C1C5C(O)(CC(=O)N1CCC[C@H]1C(N)=O)C42` (some centres not stated), with more than 60 µM; and `O=C(CC1(O)C2C3CC4C5C3C1C5C(O)(CC(=O)N[C@@H](Cc1c[nH]c3ccccc13)C(=O)O)C42)N[C@@H](Cc1c[nH]c2ccccc12)C(=O)O` (some centres not stated), with 5 µM. Still for that read-out and setting: then `O=C(CC1(O)C2C3CC4C5C3C1C5C(O)(CC(=O)N[C@@H](Cc1ccc(O)cc1)C(=O)O)C42)N[C@@H](Cc1ccc(O)cc1)C(=O)O` (some centres not stated), with 10 µM; and `O=C(O)CN(Cc1ccccc1)C(=O)CC1(O)C2C3CC4C5C3C1C5C(O)(CC(=O)N(CC(=O)O)Cc1ccccc1)C42` (configuration not stated), with more than 60 µM. Same read-out and setting: the same measure for `O=C(CC1(O)C2C3CC4C5C3C1C5C(O)(CC(=O)N[C@H](C(=O)O)c1ccccc1)C42)N[C@H](C(=O)O)c1ccccc1` (some centres not stated): 5 µM; for `CC(C)[C@H](NC(=O)CC1(O)C2C3CC4C5C3C1C5C(O)(CC(=O)N[C@H](C(=O)O)C(C)C)C42)C(=O)O` (some centres not stated): 10 µM. In test [1], `O=C(CC1(O)C2C3CC4C5C3C1C5C(O)(CC(=O)N[C@@H](Cc1ccccc1)C(=O)O)C42)N[C@@H](Cc1ccccc1)C(=O)O` (some centres not stated) yielded an IC50 of more than 60 µM. Molecule `CC(C)[C@H](NC12OC3(O)C4C5CC(C6C5C3C61)C42)C(=O)N[C@@H](C)C(=O)O` (some centres not stated) gave an IC50 in test [2] of 0.6 µM. `CC[C@H](C)[C@H](NC(=O)[C@H](C)NC(=O)[C@H](CCC(=O)O)NC12NC(=O)C3(O)C4C5CC(C6C5C3C61)C42)C(=O)N[C@@H](CO)C(=O)O` (some centres not stated) registered an IC50 in test [2] of 0.078 µM.

As for `Nc1cccc(CN2C(=O)N(Cc3cccc(N)c3)[C@H](Cc3ccccc3)[C@H](O)[C@@H](O)[C@H]2Cc2ccccc2)c1` [MOZENAVIR], the affinity in test [3] corresponds to a Ki of 0.0003 µM. This counts as sub-nanomolar.
